Reference: the NIST ThermoML archive (doi:10.1021/je050416y)
Numbers after ± are expanded uncertainties.

Columns and labels:
[1] = 101 kPa, Liquid; for mass density: Vibrating tube method
[2] = xn = mol fraction of the nth substance listed; details: 101 kPa, Liquid, x2 = 0; for mass density: Vibrating tube method

| SMILES | kinematic viscosity ([1]; 293.15 K) [m2/s] | mass density ([1]; 293.15 K) [kg/m3] | kinematic viscosity ([1]; 298.15 K) [m2/s] | mass density ([1]; 298.15 K) [kg/m3] | kinematic viscosity ([1]; 303.15 K) [m2/s] | mass density ([1]; 303.15 K) [kg/m3] | kinematic viscosity ([1]; 308.15 K) [m2/s] | mass density ([1]; 308.15 K) [kg/m3] | kinematic viscosity ([1]; 313.15 K) [m2/s] | mass density ([1]; 313.15 K) [kg/m3] | kinematic viscosity ([1]; 318.15 K) [m2/s] | mass density ([1]; 318.15 K) [kg/m3] | kinematic viscosity ([1]; 323.15 K) [m2/s] | mass density ([1]; 323.15 K) [kg/m3] | mass density ([2]; 293.15 K) [kg/m3] | kinematic viscosity ([2]; 293.15 K) [m2/s] | mass density ([2]; 298.15 K) [kg/m3] | kinematic viscosity ([2]; 298.15 K) [m2/s] | mass density ([2]; 303.15 K) [kg/m3] | kinematic viscosity ([2]; 303.15 K) [m2/s] | further results |
| --- | --- | --- | --- | --- | --- | --- | --- | --- | --- | --- | --- | --- | --- | --- | --- | --- | --- | --- | --- | --- | --- |
| CCC(C)CO (stereo not drawn) [2-methyl-1-butanol] | 6.11e-06 ± 2.5e-07 | 817.6 ± 1 | 5.34e-06 ± 2.3e-07 | 814.1 ± 1 | 4.69e-06 ± 2e-07 | 810.5 ± 1 | 4.08e-06 ± 1.8e-07 | 807.1 ± 1 | 3.54e-06 ± 1.6e-07 | 803.6 ± 1 | 3.09e-06 ± 1.4e-07 | 800.1 ± 1 | 2.72e-06 ± 1.2e-07 | 796.6 ± 1 | – | – | – | – | – | – | – |
| CCC(C)(C)O [2-methylbutan-2-ol] | 5.11e-06 ± 2.2e-07 | 813.9 ± 1 | 4.47e-06 ± 2e-07 | 810.5 ± 1 | 3.91e-06 ± 1.7e-07 | 807 ± 1 | 3.39e-06 ± 1.5e-07 | 803.5 ± 1 | 2.91e-06 ± 1.3e-07 | 800 ± 1 | 2.52e-06 ± 1.1e-07 | 796.6 ± 1 | 2.09e-06 ± 9.6e-08 | 793.3 ± 1 | – | – | – | – | – | – | – |
| CC(C)CCO [3-methylbutan-1-ol] | 5e-06 ± 2.2e-07 | 808.3 ± 1 | 4.35e-06 ± 1.9e-07 | 804.6 ± 1 | 3.81e-06 ± 1.7e-07 | 800.8 ± 1 | 3.33e-06 ± 1.5e-07 | 797.1 ± 1 | 2.94e-06 ± 1.3e-07 | 793.2 ± 1 | 2.59e-06 ± 1.2e-07 | 789.5 ± 1 | 2.29e-06 ± 1e-07 | 785.7 ± 1 | – | – | – | – | – | – | – |
| CCO [ethanol] | 1.52e-06 ± 7.2e-08 | 789.7 ± 1 | 1.39e-06 ± 6.6e-08 | 785.3 ± 1 | 1.23e-06 ± 5.9e-08 | 780.9 ± 1 | 1.13e-06 ± 5.5e-08 | 776.5 ± 1 | 1.02e-06 ± 5.1e-08 | 772.2 ± 1 | 9.4e-07 ± 4.7e-08 | 767.9 ± 1 | 8.28e-07 ± 4.2e-08 | 763.5 ± 1 | – | – | – | – | – | – | – |
| CCO [ethanol] + CC(C)CCO | – | – | – | – | – | – | – | – | – | – | – | – | – | – | 789.7 ± 1 | 1.52e-06 ± 7.2e-08 | 785.3 ± 1 | 1.39e-06 ± 6.6e-08 | 780.9 ± 1 | 1.23e-06 ± 5.9e-08 | mass density ([2]; 308.15 K): 776.5 ± 1 kg/m3; kinematic viscosity ([2]; 308.15 K): 1.13e-06 ± 5.5e-08 m2/s; mass density ([2]; 313.15 K): 772.2 ± 1 kg/m3; kinematic viscosity ([2]; 313.15 K): 1.02e-06 ± 5.1e-08 m2/s; mass density ([2]; 318.15 K): 767.9 ± 1 kg/m3; kinematic viscosity ([2]; 318.15 K): 9.4e-07 ± 4.7e-08 m2/s; mass density ([2]; 323.15 K): 763.5 ± 1 kg/m3; kinematic viscosity ([2]; 323.15 K): 8.28e-07 ± 4.2e-08 m2/s |
| CCO [ethanol] + CCC(C)(C)O | – | – | – | – | – | – | – | – | – | – | – | – | – | – | 789.7 ± 1 | 1.52e-06 ± 7.2e-08 | 785.3 ± 1 | 1.39e-06 ± 6.6e-08 | 780.9 ± 1 | 1.23e-06 ± 5.9e-08 | mass density ([2]; 308.15 K): 776.5 ± 1 kg/m3; kinematic viscosity ([2]; 308.15 K): 1.13e-06 ± 5.5e-08 m2/s; mass density ([2]; 313.15 K): 772.2 ± 1 kg/m3; kinematic viscosity ([2]; 313.15 K): 1.02e-06 ± 5.1e-08 m2/s; mass density ([2]; 318.15 K): 767.9 ± 1 kg/m3; kinematic viscosity ([2]; 318.15 K): 9.4e-07 ± 4.7e-08 m2/s; mass density ([2]; 323.15 K): 763.5 ± 1 kg/m3; kinematic viscosity ([2]; 323.15 K): 8.28e-07 ± 4.2e-08 m2/s |
| CCO [ethanol] + CCC(C)CO | – | – | – | – | – | – | – | – | – | – | – | – | – | – | 789.7 ± 1 | 1.52e-06 ± 7.2e-08 | 785.3 ± 1 | 1.39e-06 ± 6.6e-08 | 780.9 ± 1 | 1.23e-06 ± 5.9e-08 | mass density ([2]; 308.15 K): 776.5 ± 1 kg/m3; kinematic viscosity ([2]; 308.15 K): 1.13e-06 ± 5.5e-08 m2/s; mass density ([2]; 313.15 K): 772.2 ± 1 kg/m3; kinematic viscosity ([2]; 313.15 K): 1.02e-06 ± 5.1e-08 m2/s; mass density ([2]; 318.15 K): 767.9 ± 1 kg/m3; kinematic viscosity ([2]; 318.15 K): 9.4e-07 ± 4.7e-08 m2/s; mass density ([2]; 323.15 K): 763.5 ± 1 kg/m3; kinematic viscosity ([2]; 323.15 K): 8.28e-07 ± 4.2e-08 m2/s |
